Experimental data as given in the NIST ThermoML archive (doi:10.1021/je800110r).

Conditions: 283.15 K, Liquid, Vibrating tube method

CCCCCCCCCC [decane]
Conditions	mass density [kg/m3]
26776 kPa	755.1
26808 kPa	755.2
26844 kPa	755.1
26869 kPa	755.2
26895 kPa	755.3
26931 kPa	755.3
26952 kPa	755.2
26974 kPa	755.3
27007 kPa	755.3
27036 kPa	755.3
27058 kPa	755.3
27090 kPa	755.5
27112 kPa	755.3
27145 kPa	755.4
27171 kPa	755.4
27193 kPa	755.5
27219 kPa	755.3
27242 kPa	755.5
27268 kPa	755.6
27295 kPa	755.5
27321 kPa	755.4
27347 kPa	755.6
27373 kPa	755.5
27611 kPa	755.7
27638 kPa	755.7
27665 kPa	755.8
27700 kPa	755.7
27726 kPa	755.8
27749 kPa	755.7
27784 kPa	755.8
27818 kPa	755.8
27842 kPa	755.9
27876 kPa	755.9
27908 kPa	755.9
27935 kPa	755.9
27963 kPa	755.9
27990 kPa	755.9
28021 kPa	755.9
28049 kPa	755.9
28076 kPa	756
28113 kPa	756
28134 kPa	756
28171 kPa	756
28206 kPa	756
28227 kPa	756
28251 kPa	756.1
28288 kPa	756.1
28322 kPa	756.2
28344 kPa	756.1
28377 kPa	756
28409 kPa	756.2
28431 kPa	756.3
28463 kPa	756.1
28486 kPa	756.2
28515 kPa	756.3
28541 kPa	756.2
28571 kPa	756.3
28597 kPa	756.3
28616 kPa	756.2
28645 kPa	756.3
28678 kPa	756.4
28701 kPa	756.3
28728 kPa	756.4
28766 kPa	756.4
28792 kPa	756.5
28822 kPa	756.4
28845 kPa	756.5
28872 kPa	756.5
28899 kPa	756.5
28925 kPa	756.5
28952 kPa	756.4
28987 kPa	756.5
29014 kPa	756.5
29040 kPa	756.5
29067 kPa	756.5
29114 kPa	756.7
29141 kPa	756.6
29203 kPa	756.7
29251 kPa	756.7
29278 kPa	756.6
29309 kPa	756.6
29341 kPa	756.7
29368 kPa	756.7
29392 kPa	756.6
29424 kPa	756.7
29460 kPa	756.7
29484 kPa	756.8
29508 kPa	756.7
29555 kPa	756.8
29591 kPa	756.8
29652 kPa	756.9
29688 kPa	757
30170 kPa	757.2
30200 kPa	757.3
30225 kPa	757.3
30263 kPa	757.3
30301 kPa	757.1
30327 kPa	757.2
30365 kPa	757.4
30399 kPa	757.3
30425 kPa	757.3
30461 kPa	757.4
30487 kPa	757.4
30512 kPa	757.4
30539 kPa	757.4
30561 kPa	757.4
30603 kPa	757.4
30638 kPa	757.4
30664 kPa	757.4
30704 kPa	757.5
30740 kPa	757.4
30771 kPa	757.5
30836 kPa	757.5
30867 kPa	757.5
30893 kPa	757.6
30975 kPa	757.6
31003 kPa	757.6
31031 kPa	757.7
31062 kPa	757.8
31099 kPa	757.6
31136 kPa	757.6
31162 kPa	757.7
31187 kPa	757.9
31218 kPa	757.7
31253 kPa	757.8
31284 kPa	757.9
31310 kPa	757.9
31337 kPa	757.9
31363 kPa	757.8
31377 kPa	757.9
31402 kPa	757.9
31424 kPa	758
31441 kPa	758
31463 kPa	758
31492 kPa	758
31509 kPa	758
31566 kPa	757.9
